Data published in the supplement of paper PMC10307832.

Assays:
Assay in all cases: relative viability (nuclei count vs DMSO), 5 days (fraction); higher = more cells survive
NCI-H1793 = system: NCI-H1793
How it was run: (§1)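 One day after seeding in 1536-well plates, lung cancer cell lines were dosed by pin tool. Dosing was either single-drug or a fixed anchor-drug dose plus five library-drug doses (not always all listed) in √10 steps. After 5 days, nuclei were stained in one fix-and-stain step and counted on 4× images, and relative viability is the nuclei count of treated wells over that of vehicle wells, given as the median of duplicate plates.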

NCI-H1792 = system: NCI-H1792
How it was run: as §1

A-427 = system: A-427
How it was run: as §1

SK-MES-1 = system: SK-MES-1
How it was run: as §1

HCC-44 = system: HCC-44
How it was run: as §1

NCI-H1944 = system: NCI-H1944
How it was run: as §1

NCI-H358 = system: NCI-H358
How it was run: as §1

NCI-H1975 = system: NCI-H1975
How it was run: as §1

NCI-H522 = system: NCI-H522
How it was run: as §1

LXF-289 = system: LXF-289
How it was run: as §1

H3255 = system: H3255
How it was run: as §1

NCI-H1915 = system: NCI-H1915
How it was run: as §1

NCI-H1993 = system: NCI-H1993
How it was run: as §1

LOU-NH91 = system: LOU-NH91
How it was run: as §1

COR-L 105 = system: COR-L 105
How it was run: as §1

NCI-H2170 = system: NCI-H2170
How it was run: as §1

SW 900 = system: SW 900
How it was run: as §1

NCI-H520 = system: NCI-H520
How it was run: as §1

HCC-827 = system: HCC-827
How it was run: as §1

NCI-H2087 = system: NCI-H2087
How it was run: as §1

NCI-H2023 = system: NCI-H2023
How it was run: as §1

LCLC-103H = system: LCLC-103H
How it was run: as §1

SW 1573 = system: SW 1573
How it was run: as §1

CCNC(=O)c1noc(-c2cc(C(C)C)c(O)cc2O)c1-c1ccc(CN2CCOCC2)cc1 [Luminespib] + Nc1nc2[nH]cc(CCc3ccc(C(=O)N[C@@H](CCC(=O)O)C(=O)O)cc3)c2c(=O)[nH]1 [Pemetrexed] (partner 0.2 µM)
relative viability (NCI-H1793; first compound 0.002 µM): 0.859
relative viability (NCI-H1793; first compound 0.006325 µM): 0.741
relative viability (NCI-H1793; first compound 0.02 µM): 0.294
relative viability (NCI-H1793; first compound 0.06325 µM): 0.122
relative viability (NCI-H1793; first compound 0.2 µM): 0.119
relative viability (NCI-H1792; first compound 0.002 µM): 0.816
relative viability (NCI-H1792; first compound 0.006325 µM): 0.615
relative viability (NCI-H1792; first compound 0.02 µM): 0.117
relative viability (NCI-H1792; first compound 0.06325 µM): 0.0474
relative viability (NCI-H1792; first compound 0.2 µM): 0.0496
relative viability (A-427; first compound 0.002 µM): 0.958
relative viability (A-427; first compound 0.006325 µM): 0.25
relative viability (A-427; first compound 0.02 µM): 0.812
relative viability (A-427; first compound 0.06325 µM): 0.495
relative viability (A-427; first compound 0.2 µM): 0.256
relative viability (SK-MES-1; first compound 0.002 µM): 0.962
relative viability (SK-MES-1; first compound 0.006325 µM): 0.877
relative viability (SK-MES-1; first compound 0.02 µM): 0.517
relative viability (SK-MES-1; first compound 0.06325 µM): 0.153
relative viability (SK-MES-1; first compound 0.2 µM): 0.177
relative viability (HCC-44; first compound 0.002 µM): 0.613
relative viability (HCC-44; first compound 0.006325 µM): 0.611
relative viability (HCC-44; first compound 0.02 µM): 0.773
relative viability (HCC-44; first compound 0.06325 µM): 0.659
relative viability (HCC-44; first compound 0.2 µM): 0.657
relative viability (NCI-H1944; first compound 0.002 µM): 0.636
relative viability (NCI-H1944; first compound 0.006325 µM): 0.602
relative viability (NCI-H1944; first compound 0.02 µM): 0.477
relative viability (NCI-H1944; first compound 0.06325 µM): 0.258
relative viability (NCI-H1944; first compound 0.2 µM): 0.149
relative viability (NCI-H358; first compound 0.002 µM): 0.186
relative viability (NCI-H358; first compound 0.006325 µM): 0.16
relative viability (NCI-H358; first compound 0.02 µM): 0.167
relative viability (NCI-H358; first compound 0.06325 µM): 0.147
relative viability (NCI-H358; first compound 0.2 µM): 0.078
relative viability (NCI-H1975; first compound 0.002 µM): 0.315
relative viability (NCI-H1975; first compound 0.006325 µM): 0.307
relative viability (NCI-H1975; first compound 0.02 µM): 0.34
relative viability (NCI-H1975; first compound 0.06325 µM): 0.137
relative viability (NCI-H1975; first compound 0.2 µM): 0.153
relative viability (NCI-H522; first compound 0.002 µM): 1.01
relative viability (NCI-H522; first compound 0.006325 µM): 0.974
relative viability (NCI-H522; first compound 0.02 µM): 0.855
relative viability (NCI-H522; first compound 0.06325 µM): 0.675
relative viability (NCI-H522; first compound 0.2 µM): 0.353
relative viability (LXF-289; first compound 0.002 µM): 0.91
relative viability (LXF-289; first compound 0.006325 µM): 0.915
relative viability (LXF-289; first compound 0.02 µM): 1.09
relative viability (LXF-289; first compound 0.06325 µM): 0.333
relative viability (LXF-289; first compound 0.2 µM): 0.136
relative viability (H3255; first compound 0.002 µM): 0.579
relative viability (H3255; first compound 0.006325 µM): 0.497
relative viability (H3255; first compound 0.02 µM): 0.529
relative viability (H3255; first compound 0.06325 µM): 0.536
relative viability (H3255; first compound 0.2 µM): 0.335
relative viability (NCI-H1915; first compound 0.002 µM): 0.479
relative viability (NCI-H1915; first compound 0.006325 µM): 0.482
relative viability (NCI-H1915; first compound 0.02 µM): 0.442
relative viability (NCI-H1915; first compound 0.06325 µM): 0.312
relative viability (NCI-H1915; first compound 0.2 µM): 0.0621
relative viability (NCI-H1993; first compound 0.002 µM): 0.566
relative viability (NCI-H1993; first compound 0.006325 µM): 0.577
relative viability (NCI-H1993; first compound 0.02 µM): 0.557
relative viability (NCI-H1993; first compound 0.06325 µM): 0.284
relative viability (NCI-H1993; first compound 0.2 µM): 0.367
relative viability (LOU-NH91; first compound 0.002 µM): 0.426
relative viability (LOU-NH91; first compound 0.006325 µM): 0.36
relative viability (LOU-NH91; first compound 0.02 µM): 0.539
relative viability (LOU-NH91; first compound 0.06325 µM): 0.339
relative viability (LOU-NH91; first compound 0.2 µM): 0.324
relative viability (COR-L 105; first compound 0.002 µM): 1.11
relative viability (COR-L 105; first compound 0.006325 µM): 0.952
relative viability (COR-L 105; first compound 0.02 µM): 1.18
relative viability (COR-L 105; first compound 0.06325 µM): 0.593
relative viability (COR-L 105; first compound 0.2 µM): 0.24
relative viability (NCI-H2170; first compound 0.002 µM): 0.291
relative viability (NCI-H2170; first compound 0.006325 µM): 0.267
relative viability (NCI-H2170; first compound 0.06325 µM): 0.219
relative viability (NCI-H2170; first compound 0.2 µM): 0.141
relative viability (SW 900; first compound 0.002 µM): 0.492
relative viability (SW 900; first compound 0.006325 µM): 0.512
relative viability (SW 900; first compound 0.02 µM): 0.427
relative viability (SW 900; first compound 0.06325 µM): 0.133
relative viability (SW 900; first compound 0.2 µM): 0.146
relative viability (NCI-H520; first compound 0.002 µM): 0.691
relative viability (NCI-H520; first compound 0.006325 µM): 0.699
relative viability (NCI-H520; first compound 0.02 µM): 0.792
relative viability (NCI-H520; first compound 0.06325 µM): 0.135
relative viability (NCI-H520; first compound 0.2 µM): 0.13
relative viability (HCC-827; first compound 0.002 µM): 0.22
relative viability (HCC-827; first compound 0.006325 µM): 0.27
relative viability (HCC-827; first compound 0.02 µM): 0.236
relative viability (HCC-827; first compound 0.06325 µM): 0.159
relative viability (HCC-827; first compound 0.2 µM): 0.158
relative viability (NCI-H2087; first compound 0.002 µM): 0.708
relative viability (NCI-H2087; first compound 0.006325 µM): 0.627
relative viability (NCI-H2087; first compound 0.02 µM): 0.639
relative viability (NCI-H2087; first compound 0.06325 µM): 0.152
relative viability (NCI-H2087; first compound 0.2 µM): 0.133
relative viability (NCI-H2023; first compound 0.002 µM): 0.28
relative viability (NCI-H2023; first compound 0.006325 µM): 0.244
relative viability (NCI-H2023; first compound 0.02 µM): 0.0961
relative viability (NCI-H2023; first compound 0.06325 µM): 0.071
relative viability (NCI-H2023; first compound 0.2 µM): 0.0739
relative viability (LCLC-103H; first compound 0.002 µM): 0.441
relative viability (LCLC-103H; first compound 0.006325 µM): 0.445
relative viability (LCLC-103H; first compound 0.02 µM): 0.535
relative viability (LCLC-103H; first compound 0.06325 µM): 0.486
relative viability (LCLC-103H; first compound 0.2 µM): 0.472
relative viability (SW 1573; first compound 0.002 µM): 0.818
relative viability (SW 1573; first compound 0.006325 µM): 0.898
relative viability (SW 1573; first compound 0.02 µM): 0.189
relative viability (SW 1573; first compound 0.06325 µM): 0.0968
relative viability (SW 1573; first compound 0.2 µM): 0.0903
